# Literature values, collected in patent US20160279255A1, “THERAPEUTIC COMPOSITIONS INCLUDING MODULATORS OF deltaPKC AND/OR epsilonPKC, AND USES THEREOF” (priority 2014, published 2016).
# Test system: several mammalian cell types
# Settings: energy-independent manner; cited from earlier work
substance,measurement,value
"2′,6′-Dmt-D-Arg-Phe-Lys-NH2",penetration of the plasma membrane,readily penetrates the plasma membrane
